Data reported in patent US20120034288A1, “COMPOSITIONS AND METHODS FOR ENHANCED ATTRACTION OF NOCTUID MOTHS” (priority 2010, published 2012).

Columns and labels:
Heliothis zea [1] = assay: Heliothis zea Test 2: field trap capture with added enhancer; assay type: in vivo; details: Arkansas, enhancer added to pheromone lure
Excerpt: The percent increase in Heliothis zea captures with the addition of the soybean volatile trans-2,cis-6-nonadienal was 44%, 25%, and 54% respectively for Mississippi and Arkansas in test 1 and in Arkansas in test 2.

Heliothis zea [2] = assay: Heliothis zea Test 1: field trap capture, Hercon pheromone lure with/without enhancer; assay type: in vivo; details: for percent increase in Heliothis zea captures: test 1, enhancer added to pheromone lure
Method: 12 traps were set in Yazoo City and 10 in Monroe County, Miss. From mid June through mid September trans-2, cis-6-nonadienal, a compound reported from the volatiles of corn and soybean plants was tested. Both treatments used a commercial Heliothis zea pheromone dispenser produced by Hercon. The standard was this lure only, while the enhanced traps also contained a dispenser produced in-house that contained the enhancer.

CC/C=C\CC/C=C/C=O [trans-2,cis-6-nonadienal, trans-2, cis-6-nonadienal]
percent increase in Heliothis zea captures (Heliothis zea [1]): 54%
percent increase in Heliothis zea captures (Heliothis zea [2]; Arkansas): 25%
percent increase in Heliothis zea captures (Heliothis zea [2]; Mississippi): 44%
function as an enhancer for attracting H. zea (Heliothis zea [2]; statement in words): functioned as an enhancer
